Molecular target: T1, human α7 nAChR (Homo sapiens, UniProt P36544)
T1 construct: expressed in transfected cells; host or cells: GH4C1 cells derived from rat pituitary (ATCC CCL-82.2)
Experiment: Evaluation of PAM activity with human α7 nACh receptor stably expressing cells (aequorin luminescence, FDSS7000)
Assay type: cell-based
Settings: for activity at 10 µM / α7PAM (%) @ 10 μmol/L: test compound 10 μmol/L, ACh added at EC20, ratio of RLU (Max-Min) of test wells to control wells; for activity at 10 µM: read-out: α7PAM (%) @ 10 μmol/L
Outline: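 PAM activity defined as RLU (Max-Min) of compound wells over control wells, from 465 nm aequorin luminescence tracked 138 s after ACh challenge. Host: GH4C1 (rat pituitary) stably co-expressing human α7 nAChR and aequorin, pre-loaded 4 h with 4 μmol/L luminescent substrate.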

T1 sequence (P36544 23-502): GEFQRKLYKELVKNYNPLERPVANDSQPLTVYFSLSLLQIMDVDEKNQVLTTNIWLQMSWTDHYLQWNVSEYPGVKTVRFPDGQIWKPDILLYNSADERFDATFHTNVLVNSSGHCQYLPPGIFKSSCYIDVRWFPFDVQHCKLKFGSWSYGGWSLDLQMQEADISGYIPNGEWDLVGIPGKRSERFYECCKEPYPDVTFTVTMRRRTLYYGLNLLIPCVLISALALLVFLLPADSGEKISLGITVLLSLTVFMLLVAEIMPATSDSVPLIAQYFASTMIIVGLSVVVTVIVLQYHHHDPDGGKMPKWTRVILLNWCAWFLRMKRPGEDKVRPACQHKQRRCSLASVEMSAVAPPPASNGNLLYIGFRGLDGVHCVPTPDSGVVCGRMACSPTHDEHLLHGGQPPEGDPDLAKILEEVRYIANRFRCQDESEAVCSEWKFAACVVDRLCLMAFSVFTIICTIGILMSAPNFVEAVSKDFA

Structure (SMILES) | α7PAM (%) @ 10 μmol/L [%] | further results
O=C(NC1CCC(F)(F)CC1)N1CCC(n2ncc3cc(F)ccc32)CC1 [Example 28, N-(4,4-difluorocyclohexyl)-4-(5-fluoro-1H-indazol-1-yl)piperidine-1-carboxamide] | – | activity at 10 µM: 340%
COC1CCC(NC(=O)N2CCC(n3ncc4cc(Br)ccc43)CC2)CC1 (stereo not shown) [Example 71] | 763 | –
COc1ccc2c(c1)c(C)nn2C1CCN(C(=O)NC2CCC(F)(F)CC2)CC1 [Example 243] | 842 | –
O=C(C1CCOCC1)N1CCC(n2ncc3cc(Br)ccc32)CC1 [Example 102] | 228 | –
CCc1ccc2c(cnn2[C@H]2CC[C@@H](NC(=O)[C@H]3CC[C@H](OC)CC3)CC2)c1 [Example 122] | 410 | –
COC(C)c1ccc2c(cnn2C2CCN(C(=O)N[C@H]3CC[C@H](OC)CC3)CC2)c1 (stereo partly shown) [Example 245] | 182 | –
CCOCc1ccc2c(cnn2C2CCN(C(=O)NC3CCC(F)(F)CC3)CC2)c1 [Example 207] | 335 | –
Cc1cccc2c1cnn2C1CCN(C(=O)NC2CCC(F)(F)CC2)CC1 [Example 93] | 934 | –
Cc1c(OC(F)F)ccc2c1cnn2C1CCN(C(=O)NC2CCOCC2)CC1 [Example 294] | 523 | –
COc1cccc2c1cnn2C1CCN(C(=O)NC2CCCCC2)CC1 [Example 181] | 538 | –
[2H]C([2H])([2H])c1ccc2c(cnn2C2CCN(C(=O)NC3CCC(OCC)CC3)CC2)c1 (stereo not shown) [Example 314] | 949 | –
Cc1c(C2CC2)ccc2c1cnn2C1CCN(C(=O)NC2CCOCC2)CC1 [Example 283, 4-(5-cyclopropyl-4-methyl-1H-indazol-1-yl)-N-(tetrahydro-2H-pyran-4-yl)piperidine-1-carboxamide] | – | activity at 10 µM: 845%
O=C(NC1CCC(OC(F)F)CC1)N1CCC(n2ncc3cc(C4CC4)ccc32)CC1 (stereo not shown) [Example 205] | 1187 | –
Cc1ccc2c(cnn2C2CCN(C(=O)NC3CCC(F)(F)CC3)CC2)c1 [Example 13, N-(4,4-difluorocyclohexyl)-4-(5-methyl-1H-indazol-1-yl)piperidine-1-carboxamide] | – | PAM activity for α7 nAChR (result in words, ratio of RLU (Max-Min) to control wells, ACh EC20): stronger PAM activity than others

Further lines, with some results ahead:

α7PAM (%) @ 10 μmol/L [%] | Structure (SMILES) | further results
209 | CCc1ccc2c(cnn2C2CCN(C(=O)C3CCC(OC)CC3)CC2)c1 (stereo not shown) [Example 117] | –
711 | COCc1cccc2c1cnn2C1CCN(C(=O)NC2CCC(F)(F)CC2)CC1 [Example 166] | –
306 | CCOc1ccc2c(cnn2C2CCN(C(=O)NC3CCOCC3)CC2)c1 [Example 19] | –
1874 | Cc1ccc2c(cnn2C2CCN(C(=O)N[C@H]3CC[C@H](OCC4CC4)CC3)CC2)c1 [Example 162] | –
342 | CC(C)Oc1cccc2c1cnn2C1CCN(C(=O)NC2CCC(F)(F)CC2)CC1 [Example 183] | –
197 | CCOc1ccc2c(cnn2C2CCN(C(=O)NC3CCC(F)(F)CC3)CC2)c1C [Example 281] | –
712 | O=C(NC1CCCOC1)N1CCC(n2ncc3cc(C4CC4)ccc32)CC1 (stereo not shown) [Example 177] | –
433 | CCc1ccc2c(c1)c(OC(C)C)nn2C1CCN(C(=O)NC2CCC(OC)CC2)CC1 (stereo not shown) [Example 59] | –
1251 | [2H]C([2H])([2H])O[C@H]1CC[C@H](NC(=O)N2CCC(n3ncc4cc(OC(F)F)ccc43)CC2)CC1 [Example 326] | –
215 | CCOc1ccc2c(cnn2C2CCN(C(=O)N[C@H]3CC[C@H](OC)CC3)CC2)c1C [Example 282] | –
1352 | [2H]C([2H])([2H])Oc1ccc2c(cnn2C2CCN(C(=O)NC3CCCCC3)CC2)c1 [Example 324] | –
143 | CCOC1CCC(NC(=O)N2CCC(n3ncc4c(C)cccc43)CC2)CC1 (stereo not shown) [Example 96] | –
1053 | CCc1ccc2c(c1)c(OC)nn2C1CCN(C(=O)NC2CCC(F)(F)CC2)CC1 [Example 149] | –
1081 | COc1ccc2c(cnn2C2CCN(C(=O)N[C@@H]3CCCCC3(F)F)CC2)c1 [Example 85] | –

From US8765786B2, “1-substituted indazole derivative” (Dainippon Sumitomo Pharma Co., Ltd., priority 2012, dated 2014)
